The source of these data is PMC8408929, “Influence of osmolality on gastrointestinal fluid volume and drug absorption: potential impact on oral salt supplementation” (Journal of Pharmaceutical Health Care and Sciences, 2021).

For one data set, the system named is intestine. On the set-up: method as in PMID 28450238. To be noted: administered in purified water vs isosmotic solution; cited from earlier work.
Details of data set [1]: method as in not given. To be noted: low-permeability drugs; ref not given; cited from earlier work.
In data set [2] the test system is rat intestine (jejunum, ileum and colon). The data set is described as follows: in situ rat intestinal closed loop method. Conditions: 30 min. How it is done: The in situ rat intestinal closed loop method was carried out as described previously. Male Wistar rats (7–8 weeks old; 250 ± 20 g body weight) were fasted overnight and anesthetized by intraperitoneal injection of a triple anesthetic combination (medetomidine, midazolam and butorphanol). The abdominal cavity was opened and an intestinal loop (jejunum, 10 cm; ileum, 10 cm; colon, 7 cm) was made by cannulation into both ends of the jejunum, ileum and colon with silicone tubing (i.d., 3 mm). The intestinal contents were washed out through the cannulas with saline. […] One mL of test compound solution (10 μM) was introduced into the intestinal loop and both ends of the loop were ligated. At the designated times (30 min), test compound solution in the loop was collected by flushing with air (for measuring the luminal concentration of test compound, Cout), and then made up to 10 mL with buffer solution (for measuring the amount of test compound, Xout). The volume of luminal water (mL) in each segment of intestine was calculated using the following equation: 1 Vwater=Xout/Cout where Vwater (mL) is the water volume in each segment of intestine, Cout is the luminal concentration of test compound (μM), and Xout is the amount of test compound (μmol). The fraction absorbed of test compound was calculated from the remaining amount of test compound in each intestinal loop. Final results were normalized to the surface area calculated from the radius and length of each segment of intestine. The radii of the small and large intestines reported by Fagerholm et al. were used (0.178 cm and 0.252 cm, respectively).
Concentrations of FD-4 were measured with a microplate fluorescence reader (VarioskanTM Flash 2.4; Thermo Fisher Scientific Inc., Kanagawa, Japan) at excitation/emission wavelengths of 492/515 nm.
An Agilent Eclitse plus (C18, 50 × 2.1 mm, 5 μm) was used as the analytical column. […] Analyst software version 1.4.2 (AB SCIEX) was used for data manipulation.

With `Cc1cc(=O)n(-c2ccccc2)n1C` [antipyrine], in the data set on intestine, the “fraction absorbed, purified water compared with isosmotic solution” value is listed as “no significant difference”.

`CC(C)NCC(O)COc1ccc(CC(N)=O)cc1` (stereo not shown) [atenolol]: in the data set on intestine, the “fraction absorbed, purified water compared with isosmotic solution” value was “significantly greater”.

`NS(=O)(=O)c1cc(C(=O)O)c(NCc2ccco2)cc1Cl` [furosemide]: the “BCS Class” value in data set [1] is listed as “Class IV”.

As to `Cc1ccccc1C(=O)Nc1ccc(C(=O)N2CCCC(O)c3cc(Cl)ccc32)c(C)c1` (stereo not shown) [tolvaptan], the “BCS Class” value in data set [1] is “Class IV”.

In the case of “fluorescein isothiocyanate-dextran 4000 [FD-4]”, the luminal concentration is 6.25 ± 0.15 µM in data set [2] (colon, 10 μM dosed in hyperosmotic solution (10% NaCl)); 27.4 ± 2.0 µM in data set [2] (colon, 10 μM dosed in purified water); 6.47 ± 0.68 µM in data set [2] (ileum, 10 μM dosed in hyperosmotic solution (10% NaCl)); 13.2 ± 0.7 µM in data set [2] (ileum, 10 μM dosed in purified water); 5.30 ± 0.31 µM in data set [2] (jejunum, 10 μM dosed in hyperosmotic solution (10% NaCl)); 13.7 ± 0.8 µM in data set [2] (jejunum, 10 μM dosed in purified water).
